Non-standard residues stand in square brackets, D forms with d. Residues, ends and D or L forms follow the SMILES beside them. No end group written: not given here. *: point of attachment. Tic‑OH = tetrahydroisoquinoline-3-carboxylic acid (hydroxy-substituted), constrained Tyr mimetic; Cit = NC(=O)NCCC[C@H](N)C(=O)O; Acm = CC(=O)NC*
Key:
[1] = target: T1, 67 kDa laminin receptor (67-LR) (Homo sapiens, UniProt P08865); assay: 125I-laminin displacement (competition binding) on T47-D or SK HEP-1 cells; conditions: relative to mEGF(33-42); 0.1 nM 125I-laminin, overnight 4° C.
T1 construct: endogenous in cells; host or cells: T47-D or SK HEP-1 cells (whole-cell suspension)
Method: ^125I-laminin was prepared using ^125I-labelled sodium iodide (Amersham, UK) and immobilised chloramine-T (Iodobeads; Pierce, Ill.). Prior to use, the beads were washed with 500 μl phosphate buffer (pH 6.5) to remove excess reagent from the support. These were then allowed to air dry and individual beads added to a solution of carrier free Na^125I, diluted with iodination buffer (phosphate buffer pH 7.4). The beads were allowed to equilibrate for 5 min.
Laminin (10 μg in 10 μl) was then diluted into the iodination buffer and the system incubated at 20° C. for 15 min. The solution was then removed from the reaction vessel and excess Na^125I and unincorporated ^125I2 separated from the iodinated protein by gel filtration on a GF-5 exclusion column (Pierce, Ill.). Iodinated laminin fractions were recovered at a specific activity of approximately 1.2 mCi/mg protein (864 Ci/mmol).
Near confluent cultures of T47-D or SK HEP-1 cells were removed from monolayer with 0.02% EGTA and passed through a G-25 syringe needle to produce single cell suspensions. Aliquots of each cell type (10^6 cells/ml) were dispensed into separate Ependorf tubes (1 ml each) and pelleted. The cells were then resuspended in 1 ml ice-cold RPMI (SK HEP-1) or DMEM (T47-D) containing 0.1% BSA and either laminin or synthetic peptide at the concentrations indicated. Iodinated laminin was then added to each cell suspension to give a final ^125I-laminin concentration of 0.1 nM (approximately 50,000 cpm). These mixtures were incubated overnight at 4° C.
The tubes were then microfuged at 10,000 g and the supernatant removed. After washing the pellet with 500 μl CFS, the remaining radioactivity was determined using a gamma radiation counter. Non-specific binding was determined by incubating cells with a 1000-fold molar excess of unlabelled laminin. All estimations were carried out in triplicate.
(§1) IC50 (concentration of unlabelled peptide required to produce 50% inhibition of radioligand binding) and EC50 (effective concentration for 50% inhibition of cell attachment) values were calculated using the Grafit curve-fitting programme (Erithacus Software, London, UK).

[2] = test system: Endothelial cells (SK HEP-1 and BRCE); assay: Migration assay (colloidal gold track area); format: cell-based; conditions: endothelial cells, 18 h
Method: The method used was basically as described by Albrecht-Buehler (1977). Briefly, coverslips (22×22 mm) were treated in 5% detergent (7×; ICN Biomedicals) and washed in alcohol to remove grease. After drying, they were immersed in gelatin solution (Sigma, 300 Bloom; 0.5 g in 300 ml distilled H2O) for 10 min. The coverslips were then dried by placing in a 70° C. oven for 45 min.
Colloidal gold suspension was prepared by adding 11 ml distilled H2O and 6 ml Na2CO3 (36.5 mM) to 1.8 ml AuHCl4 (14.5 mM). The mixture was heated to 95° C. at which point 1.8 ml of freshly prepared 0.1% formaldehyde solution was added; the temperature was maintained at 95° C. A suspension of colloidal gold was formed which was brown to absorbed light and blue to transmitted light.
The gold suspension, was then added to petri dishes containing individual coverslips and the plates incubated at 37° C. for 45 min. After washing with CFS (3×4 ml) to remove unattached gold particles, the coverslips were transferred to 6-well cluster dishes and UV sterilised.
Endothelial cells (SK HEP-1 and BRCE) in culture media (0.3 ml) were seeded onto the coverslips at an approximate density of 5×10^3 cells per well. The cells were allowed to plate down for 2 h at 37° C. after which the treatments were added. Assay systems were maintained for a further 18 h after which the cells were fixed using 3% gluteraldehyde in cacodylate buffer (pH 7.2).
The assays were examined using a Leica DM1RB phase contrast microscope and Q500MC image analysis system incorporating a JVC TK-1280E colour camera (Leica, Milton Keynes, UK). The track images of at least 30 cells were videocaptured and the area (representing migration response) determined for each. Statistical analysis of these areas was then carried out using Macintosh Instat software to perform both Kruskal-Wallis analysis of variance and Mann-Whitney U-tests in order to compare the treatment groups with controls.

[3] = test system: angiogenesis in the chick; assay: Chick angiogenesis model; format: in vivo; conditions: laminin-stimulated; model not stated at the place (Nelson et al 1995)
67 kDa laminin receptor = target: T2, 67 kDa laminin receptor (Homo sapiens, UniProt P08865); assay: Cell attachment to biotinylated mEGF(33-42) with anti-laminin receptor or anti-EGF receptor antibodies; format: cell-based
T2 construct: endogenous in cells
Method: Briefly, 96-well plates were coated with 100 μl/well streptavidin (5 μg/ml in carbonate buffer pH 9.6) and following an overnight incubation at 37° C., wells were washed with CFS (3×100 μl) and the plastic blocked with casein (0.2% in CFS). The plates were then incubated at room temperature for 45 min and washed with CFS as previously detailed. Biotinylated mEGF(33-42) in CFS was then aliquoted into the wells (0.1 ml of 100 μM) and the plates incubated for 3 h at 37° C.
After a further block with 0.2% casein, the wells were washed with CFS (3×100 μl aliquots). Plates were kept at 4° C. and used within 2 h.
Cells were prepared as above and pre-incubated for 1 h at 37° C. with serial dilutions of anti-laminin receptor polyclonal (see below) or anti-EGF (R1) receptor monoclonal antibodies. Subsequent procedures were as detailed for the laminin attachment assay.

[4] = test system: Endothelial cells (SK HEP-1 and BRCE); conditions: shown previously; cited from earlier work
[5] = test system: angiogenesis in the chick; conditions: shown previously; cited from earlier work
[6] = test system: cell attachment to laminin through the 67-LR (T-47D, SK HEP-1); assay: Laminin attachment assay; format: cell-based, human; conditions: relative to mEGF(33-42)
Method: Non-tissue culture grade 96-well plates, coated with 2.5 μg murine laminin in 50 μl CFS per well, were air-dried overnight at room temperature. […] After rinsing with CFS (100 μl), the plastic was saturated with casein (0.2% in CFS). Plates were incubated at room temperature for 45 min then washed extensively with CFS (3×100 μl).
After removal of culture media, cells were detached from monolayers by the action of EGTA (0.02% in CFS) at 37° C. The cells were then centrifuged at 800 g for 2 min and the pellet resuspended in DMEM (T-47D) or RPMI (SK HEP-1).
Cells, at a population density of 10^6 cells/ml, were then aliquoted (1 ml) into microfuge tubes containing the individual peptide sequences and incubated for 1 h at 37° C. The cells (100 μl aliquots) were then added to the pre-coated multi-well plates and incubated for a further 60 min. Incubation media were removed and the wells washed with CFS (3×100 μl) to rid the plates of non-adherent cells.
Attached cell numbers were evaluated spectrophotometrically at 620 nm after fixing with 10% formaldehyde and staining with crystal violet.
as §1

trypsin-like proteases = assay: Resistance to trypsin degradation; format: in vitro ADME
67-LR = target: T3, 67-LR (Homo sapiens, UniProt P08865); assay: Peptide screening for receptor interaction, cell adhesion and motility properties; format: cell-based
T3 construct: endogenous in cells
Source text: In addition, using residue exchange between the two peptides and molecular modelling to predict three-dimensional structure, we wished to further investigate the role of individual mEGF(33-42) residues in laminin antagonism. A logical series of peptides was synthesised and screened for receptor interaction, cell adhesion and motility properties (Table 1a and 1b).

| Molecule | receptor affinity, 125I-laminin displacement (IC50), in words [1] | migration (motility) response: laminin agonist or antagonist [2] | inhibition of cell attachment (adhesion) to laminin (EC50), in words [6] | also measured |
| --- | --- | --- | --- | --- |
| Acetyl-C-[S-Acm]-VIGYSGDR-C-[S-Acm]NH2 (Ac-C(Acm)VIGYSGDRC(Acm)-NH2) [mEGF(33-42), capped synthetic peptide of residues 33 to 42 of murine epidermal growth factor, 67LR antagonist] | equipotent | antagonist | – | angiogenic effects of laminin [3]: inhibits the angiogenic effects of laminin; receptor that mediates the anti-angiogenic effects (67 kDa laminin receptor; 67-LR versus EGF receptor): mediated solely through the high affinity 67 kDa laminin receptor (67-LR) and not through the EGF receptor; binding to the 67 kDa laminin receptor (67 kDa laminin receptor; biotinylated derivative of the peptide on streptavidin plates): bound to the 67 kDa laminin receptor; basal and EGF-stimulated motility of primary and established endothelial cells [4]: blocking the basal and EGF-stimulated motility; EGF-stimulated angiogenic response in the early chick [5]: inhibit the EGF-stimulated angiogenic response |
| CAIGYSGDRC [peptide VII, alanine scan of mEGF(33-42): Ala for Val] | dramatic decrease in receptor affinity | – | parallel decrease in their ability to block adhesion to laminin | – |
| CC[C@H](C)[C@H](NC(=O)[C@@H](NC(=O)[C@H](CSCNC(C)=O)NC(C)=O)C(C)C)C(=O)NCC(=O)N[C@@H](Cc1ccc(O)cc1)C(=O)N[C@@H](CO)C(=O)NCC(=O)N[C@@H](CC(=O)O)C(=O)N[C@@H](CCCNC(N)=O)C(=O)N[C@@H](CSCNC(C)=O)C(N)=O [peptide IV, AcC(Acm)-VIGYSGD-[Cit]-C-(Acm)-NH2] (Ac-C(Acm)VIGYSGD[Cit]C(Acm)-NH2) | increased both receptor binding and inhibition of attachment to laminin substrata | – | – | resistance to trypsin / trypsin-like proteases (trypsin-like proteases): resistant to cleavage by trypsin-like proteases |
| mEGF(33-42) analogue, isoleucine (P6) for serine; acetyl-Cys(ACM)-Val-Ile-Gly-Tyr-Ile-Gly-Asp-Arg-Cys(ACM)-NH2 (Ac-C(Acm)VIGYIGDRC(Acm)-NH2; SMILES CC[C@H](C)[C@H](NC(=O)[C@H](Cc1ccc(O)cc1)NC(=O)CNC(=O)[C@@H](NC(=O)[C@@H](NC(=O)[C@H](CSCNC(C)=O)NC(C)=O)C(C)C)[C@@H](C)CC)C(=O)NCC(=O)N[C@@H](CC(=O)O)C(=O)N[C@@H](CCCNC(=N)N)C(=O)N[C@@H](CSCNC(C)=O)C(N)=O) [peptide I] | reduced receptor affinity | weak antagonist activities | both reduced receptor affinity and potency in displacement of cell adhesion to laminin | – |
| CVIGYAGDRC [X, alanine scan of mEGF(33-42): Ala for Ser (P6)] | dramatic decrease in receptor affinity | – | parallel decrease in their ability to block adhesion to laminin | – |
| CVIGYSGDRA [peptide IX, alanine scan of mEGF(33-42): alanine for cysteine at P10] | retains both receptor binding and adhesion displacing activities | has the agonism of Lam.β-1(925-933) | retains both receptor binding and adhesion displacing activities | – |
| laminin | equipotent | – | – | – |
| AVIGYSGDRC [peptide VIII, alanine scan of mEGF(33-42): alanine for cysteine (P1)] | dramatic decrease in receptor affinity | weak laminin agonist | parallel decrease in their ability to block adhesion to laminin | – |
| CVAGYSGDRC [peptide VI, alanine scan of mEGF(33-42): Ala for Ile] | dramatic decrease in receptor affinity | – | parallel decrease in their ability to block adhesion to laminin | – |
| peptide V: mEGF(33-42) analogue, tyrosine (P5) substituted with Tic-OH (CVIG[Tic‑OH]SGDRC; cysteine pairing not given here) | both receptor binding and adhesion responses were retained | agonist | both receptor binding and adhesion responses were retained | – |
| peptide III: mEGF(33-42) analogue with both isoleucine (P6) for serine and serine (P8) for aspartate (CVIGYIGSRC) | – | – | – | biological function (receptor binding, adhesion, motility) (67-LR): complete loss of biological function |
| peptide II: mEGF(33-42) analogue, aspartate (P8) replaced with serine (CVIGYSGSRC) | – | – | – | biological function (receptor binding, adhesion, motility) (67-LR): complete loss of biological function |

Source: patent publication US6995136B1, “Peptide fragments of murine epidermal growth factor as laminin receptor targets” (The Queen's University of Belfast, priority 1998, dated 2006)
